In article PMC8274277 (Antiviral Research, 2021):
Where two headings read alike, the source gives them in different places.

Legend:
SARS-CoV-2 [1] = type: cell-based, SARS-CoV-2 strain BavPat1; details: VeroE6 cells
SARS-CoV-2 [2] = system: SARS-CoV-2; design: species or system golden Syrian hamsters; details: hamster, in vivo
SARS-CoV-2 [3] = test: Antiviral assay using bronchial human airway epithelium; type: cell-based, SARS-CoV-2 strain BavPat1
SARS-CoV-2 [4] = test: Lung histology of infected hamsters; type: in vivo, golden Syrian hamsters; details: sacrificed at 5 dpi
[5] = hospitalized COVID-19 patients; ref Aman et al., 2021; cited from earlier work

## O=C(Nc1ccc(OC(F)(F)Cl)cc1)c1cnc(N2CC[C@@H](O)C2)c(-c2cc[nH]n2)c1 [Asciminib]
SARS-CoV-2 [1]
  selectivity Index (SI, CC50/EC50): 1.1
SARS-CoV-2 [1]; SARS-CoV-2
  antiviral activity: did not show any antiviral activity

## NC(=O)c1nc(F)c[nH]c1=O [Favipiravir]
SARS-CoV-2 [2]
  lung infectious titers (TCID50 assay): significant reductions
  lung viral RNA yields (RT-qPCR): significant reductions
  viral replication in clarified lung homogenates and plasma: significant reduction of viral replication

## Cc1ccc(NC(=O)c2ccc(CN3CCN(C)CC3)cc2)cc1Nc1nccc(-c2cccnc2)n1 [Imatinib]
SARS-CoV-2 [3]
  viral RNA yields in apical washes: small significant reduction
SARS-CoV-2 [3]; […], imatinib 10, 5, remdesivir 10 μM
  antiviral activity (viral RNA yields and infectious titres in apical washes): no other significant antiviral activity
SARS-CoV-2 [2]; po
  molecular plasma viral loads: did not affect significantly
SARS-CoV-2 [4]; first experiment, 32 mg/day
  lung histopathological impairements vs untreated group: significant improvement
SARS-CoV-2 [4]; second experiment, 32, 16 and 8 mg/day
  lung histopathology grade severity: did not led to a significant improvement
[5]
  time to discontinuation of supplemental oxygen and mechanical ventilation: does not reduce the time to discontinuation of supplemental oxygen and mechanical ventilation

## Cc1ccc(NC(=O)c2ccc(CN3CCN(C)CC3)cc2)cc1Nc1nc(-c2cccnc2)cs1 [Masitinib]
SARS-CoV-2 [1]
  selectivity Index (SI, CC50/EC50): 11.5

## CCC(CC)COC(=O)[C@H](C)N[P@](=O)(OC[C@H]1O[C@@](C#N)(c2ccc3c(N)ncnn23)[C@H](O)[C@@H]1O)Oc1ccccc1 [Remdesivir]
SARS-CoV-2 [3]
  antiviral activity (viral RNA yields and infectious titres in apical washes): strong antiviral activity
